Test system: mice
Assay: Acute toxicity test using mice
Assay type: in vivo
Details: 100 mg/kg administered intraperitoneally
Method: Further, no mice died in an acute toxicity test using mice in which the compound TAN-1607A (100 mg/kg) was administered intraperitoneally.

## CC(=O)OC(CCCC12OC(C(=O)O)C(O)(C(=O)O)C(C(=O)O)(O1)C(OC(=O)CCCCCCCC/C=C/c1ccccc1)C2O)C(C)C/C=C/c1ccccc1 (stereo not shown) [TAN-1607A]
  acute toxicity (mortality): no mice died

Source: patent publication EP0568946A1, “Compound TAN-1607A, its derivatives, their production, and use thereof” (TAKEDA CHEMICAL INDUSTRIES, LTD., priority 1992, dated 1993)
